Reference: ChEMBL document CHEMBL4428076 (J Med Chem, 2016)
pEC50, pIC50, pKi: −log10 of the molar value. Calls of active or inactive are those of the source. The rule behind the calls is not given here.

Assays:
[1] = molecular target: T1, Delta-type opioid receptor (Mus musculus, UniProt P32300); test: Displacement of [125I]-IBNtxA from mouse delta opioid receptor-1 expressed in CHO cell membranes incubated for 90 mins
[2] = molecular target: T2, Kappa-type opioid receptor (Mus musculus, UniProt P33534); test: Displacement of [125I]-IBNtxA from mouse kappa opioid receptor-1 expressed in CHO cell membranes incubated for 90 mins
[3] = molecular target: T3, Mu-type opioid receptor (Mus musculus, UniProt P42866); test: Displacement of [125I]-IBNtxA from mouse mu opioid receptor-1 expressed in CHO cell membranes incubated for 90 mins
[4] = molecular target: T4, Mu-type opioid receptor (Homo sapiens, UniProt P35372); test: Activation of mu opioid receptor-1 (unknown origin) expressed in CHO cells assessed as beta-arrestin-2 recruitment at 10 uM after 90 mins by beta-galactosidase complementation assay; format: cell-based; settings: 1.5 h
[5] = molecular target: T3, Mu-type opioid receptor; test: Agonist activity at mouse mu opioid receptor-1 expressed in CHO cell membranes assessed as [35S]GTPgammaS binding incubated for 60 mins by scintillation spectroscopic analysis; format: functional
[6] = molecular target: T2, Kappa-type opioid receptor; test: Antagonist activity at mouse kappa opioid receptor-1 expressed in CHO cell membranes assessed as inhibition of U50,488H-induced [35S]GTPgammaS binding incubated for 60 mins by scintillation spectroscopic analysis; format: functional
[7] = molecular target: T1, Delta-type opioid receptor; test: Antagonist activity at mouse delta opioid receptor-1 expressed in CHO cell membranes assessed as inhibition of DPDPE-induced [35S]GTPgammaS binding incubated for 60 mins by scintillation spectroscopic analysis; format: functional
[8] = tested on: Mus musculus; test: Antinociceptive activity in sc dosed CD-1 mouse assessed as increase in reaction time measured 15 mins post dose by radiant heat tail flick assay; format: functional; settings: CD-1, sc, 0.25 h
[9] = molecular target: Mu-type opioid receptor (Mus musculus) (UniProt P42866); test: Agonist activity at mouse mu opioid receptor-1 expressed in CHO cell membranes assessed as [35S]GTPgammaS binding incubated for 60 mins by scintillation spectroscopic analysis relative to DAMGO; format: functional
[10] = tested on: Mus musculus; test: Antinociceptive activity in sc dosed CD-1 mouse assessed as increase in reaction time administered twice daily at dosing intervals of 12 hrs for 5 days by radiant heat tail flick assay; format: functional; settings: CD-1, sc
[11] = species on record: Mus musculus; test: animal or person; settings: CD-1, sc, 0.5 h
Description: Antinociceptive activity in sc dosed CD-1 mouse assessed as increase in latency latency to respond with hind paw lick or shake/flutter measured 30 mins post dose by hot plate test

[12] = tested on: Mus musculus; test: Antinociceptive activity in CD-1 mouse assessed as increase in reaction time at 0.75 ug, icv administered on day 6 after MOR1-exon1 antisense oligodeoxynucleotide injection on day 1, 3 and 5 by radiant heat tail flick assay; format: functional, organism-based
[13] = species on record: Mus musculus; test: animal or person; settings: CD-1, sc, 0.5 h; remark: listed apart in the source
Description: Antinociceptive activity in sc dosed CD-1 mouse assessed as increase in reaction time measured 30 mins post dose by radiant heat tail flick assay

[14] = tested on: Mus musculus; test: Antinociceptive activity in CD-1 mouse assessed as increase in reaction time at 10 ug, icv administered on day 6 after DOR1-exon3 antisense oligodeoxynucleotide injection on day 1, 3 and 5 by radiant heat tail flick assay; format: functional, organism-based
[15] = molecular target: T4, Mu-type opioid receptor; test: Inhibition of DAMGO-induced beta-arrestin-2 recruitment at mu opioid receptor-1 (unknown origin) expressed in CHO cells preincubated for 30 mins followed by DAMGO addition measured after 90 mins by beta-galactosidase complementation assay; format: cell-based
[16] = molecular target: T1, Delta-type opioid receptor; test: Agonist activity at mouse delta opioid receptor-1 expressed in CHO cell membranes assessed as [35S]GTPgammaS binding incubated for 60 mins by scintillation spectroscopic analysis; format: functional
[17] = molecular target: Delta-type opioid receptor (Mus musculus) (UniProt P32300); test: Agonist activity at mouse delta opioid receptor-1 expressed in CHO cell membranes assessed as [35S]GTPgammaS binding incubated for 60 mins by scintillation spectroscopic analysis relative to DPDPE; format: functional
Sequence of Delta-type opioid receptor (Mus musculus) (P32300 whole entry): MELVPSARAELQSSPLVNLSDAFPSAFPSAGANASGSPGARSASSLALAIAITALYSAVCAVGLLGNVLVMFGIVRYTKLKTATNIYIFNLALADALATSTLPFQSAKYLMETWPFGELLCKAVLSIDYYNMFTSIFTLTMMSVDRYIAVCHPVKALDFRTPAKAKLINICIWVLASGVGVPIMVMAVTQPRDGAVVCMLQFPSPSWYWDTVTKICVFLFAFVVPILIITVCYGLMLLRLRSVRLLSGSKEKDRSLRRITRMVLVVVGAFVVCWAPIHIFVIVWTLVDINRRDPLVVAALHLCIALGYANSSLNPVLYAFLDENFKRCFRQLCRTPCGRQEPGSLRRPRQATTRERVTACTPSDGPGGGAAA

T2 sequence (P33534 whole entry): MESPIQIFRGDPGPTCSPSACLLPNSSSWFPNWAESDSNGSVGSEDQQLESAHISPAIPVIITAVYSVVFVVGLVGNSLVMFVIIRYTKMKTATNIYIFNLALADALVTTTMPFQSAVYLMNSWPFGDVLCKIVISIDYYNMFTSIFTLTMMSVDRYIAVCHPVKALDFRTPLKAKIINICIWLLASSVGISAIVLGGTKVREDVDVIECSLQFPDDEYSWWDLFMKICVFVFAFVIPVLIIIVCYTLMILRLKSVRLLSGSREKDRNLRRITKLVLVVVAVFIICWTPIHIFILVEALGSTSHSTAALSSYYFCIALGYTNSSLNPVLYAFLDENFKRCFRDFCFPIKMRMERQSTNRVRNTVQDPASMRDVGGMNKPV
T3 sequence (P42866 whole entry): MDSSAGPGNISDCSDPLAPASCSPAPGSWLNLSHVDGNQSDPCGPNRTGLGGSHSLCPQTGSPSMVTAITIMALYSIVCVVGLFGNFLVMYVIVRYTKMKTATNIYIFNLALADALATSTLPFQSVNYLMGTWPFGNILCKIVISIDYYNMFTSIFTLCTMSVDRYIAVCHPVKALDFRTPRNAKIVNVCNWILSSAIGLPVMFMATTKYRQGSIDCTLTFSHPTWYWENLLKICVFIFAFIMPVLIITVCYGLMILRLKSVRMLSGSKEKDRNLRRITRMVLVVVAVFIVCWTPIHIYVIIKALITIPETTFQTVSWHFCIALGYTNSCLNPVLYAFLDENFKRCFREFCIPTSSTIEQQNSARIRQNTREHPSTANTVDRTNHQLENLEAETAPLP
Sequence of Mu-type opioid receptor (Mus musculus) (P42866 whole entry): as above
T1 sequence (P32300 whole entry): as the sequence (P32300 whole entry) above
T4 sequence (P35372 whole entry): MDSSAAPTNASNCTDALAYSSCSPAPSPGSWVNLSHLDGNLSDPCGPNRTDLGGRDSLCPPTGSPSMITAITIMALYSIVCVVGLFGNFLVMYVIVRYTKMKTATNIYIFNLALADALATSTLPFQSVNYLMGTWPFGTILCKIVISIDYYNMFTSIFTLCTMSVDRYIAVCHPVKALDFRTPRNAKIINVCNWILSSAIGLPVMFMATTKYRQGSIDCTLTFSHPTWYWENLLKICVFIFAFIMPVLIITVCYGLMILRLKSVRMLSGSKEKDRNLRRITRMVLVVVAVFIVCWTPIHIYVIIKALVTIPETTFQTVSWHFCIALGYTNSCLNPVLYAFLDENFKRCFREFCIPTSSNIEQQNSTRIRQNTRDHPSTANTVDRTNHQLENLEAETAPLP

CC[C@@H]1CN2CC[C@@]3(C(=O)c4c(OC)cccc4N3Cc3ccccc3)[C@@H]2C[C@@H]1/C(=C\OC)C(=O)OC
pKi [1]: 6.59 | pKi [2]: 6.87 | pKi [3]: 6.60

CC[C@@H]1CN2CC[C@@]3(C(=O)c4c(OC)cccc4N3C)[C@@H]2C[C@@H]1/C(=C\OC)C(=O)OC
pKi [1]: < 6.00 | pKi [2]: < 6.00 | pKi [3]: 6.43

CC[C@@H]1CN2CC[C@]3(Nc4cccc(-c5ccoc5)c4C3=O)[C@@H]2C[C@@H]1/C(=C\OC)C(=O)OC
Activity [4]: Not Active | pKi [1]: 8.82 | pEC50 [5]: 8.82 | pKi [2]: 7.41 | pIC50 [6]: 6.69 | pKi [3]: 9.03 | pIC50 [7]: 7.41 | ED50 [8]: 1.1 mg/kg | Emax [9]: 100%

CN1CC[C@]23c4c5ccc(O)c4O[C@H]2[C@@H](O)C=C[C@H]3[C@H]1C5 [MORPHINE]
ED50 [10]: 12.1 mg/kg | ED50 [11]: 1.7 mg/kg | Activity [12]: inactive | ED50 [13]: 2 to 2.5 mg/kg

CC[C@@H]1CN2CC[C@]3(Nc4cccc(OC(C)=O)c4C3=O)[C@@H]2C[C@@H]1/C(=C\OC)C(=O)OC
pKi [1]: 7.70 | pEC50 [5]: 8.41 | pKi [2]: 7.51 | pKi [3]: 8.60 | ED50 [8]: 0.38 mg/kg | Emax [9]: 120%

CC1(C)SSC(C)(C)[C@@H](NC(=O)[C@@H](N)Cc2ccc(O)cc2)C(=O)NCC(=O)N[C@@H](Cc2ccccc2)C(=O)N[C@H]1C(=O)O
Activity [14]: inactive

C[C@@H](NC(=O)[C@@H](N)Cc1ccc(O)cc1)C(=O)NCC(=O)N(C)[C@@H](Cc1ccccc1)C(=O)NCCO [DAMGO]
Activity [4]: Active

CC[C@@H]1CN2CCc3c([nH]c4cccc(OC)c34)[C@@H]2C[C@@H]1/C(=C\OC)C(=O)OC
Activity [4]: Not Active | ED50 [8]: 166 mg/kg | Emax [9]: 65%

CC[C@@H]1CN2CC[C@]3(Nc4cccc(O)c4C3=O)[C@@H]2C[C@@H]1/C(=C\OC)C(=O)OC
Activity [4]: Not Active | pKi [1]: 8.21 | pEC50 [5]: 8.70 | pKi [2]: 6.77 | pKi [3]: 8.85 | pIC50 [7]: 6.53 | ED50 [8]: 0.18 mg/kg | Emax [9]: 124%

CC[C@@H]1CN2CC[C@@]3(O)C(=Nc4cccc(OC)c43)[C@@H]2C[C@@H]1/C(=C\OC)C(=O)OC
Activity [4]: Not Active | pEC50 [5]: 7.28 | pIC50 [6]: 5.60 | inhibition [15]: Dose-dependent effect | pKi [3]: 7.43 | ED50 [8]: 0.46 mg/kg | Emax [9]: 77%

CC[C@@H]1CN2CC[C@]3(Nc4cccc(-c5ccccc5)c4C3=O)[C@@H]2C[C@@H]1/C(=C\OC)C(=O)OC
pEC50 [16]: 9.08 | Activity [4]: Not Active | pKi [1]: 9.10 | pEC50 [5]: 8.85 | pKi [2]: 7.29 | pIC50 [6]: 6.77 | pKi [3]: 9.04 | Emax [17]: 89% | ED50 [8]: 1 mg/kg | Emax [9]: 123%

CC[C@@H]1CN2CC[C@]3(Nc4ccccc4C3=O)[C@@H]2C[C@@H]1/C(=C\OC)C(=O)OC
Activity [4]: Not Active | pKi [1]: 8.54 | pEC50 [5]: 8.85 | pKi [2]: 7.72 | pIC50 [6]: 6.60 | pKi [3]: 9.34 | pIC50 [7]: 6.71 | ED50 [8]: 0.24 mg/kg | Emax [9]: 116%

CC[C@@H]1CN2CC[C@]3(Nc4cccc(C#N)c4C3=O)[C@@H]2C[C@@H]1/C(=C\OC)C(=O)OC
Activity [4]: Not Active | pKi [1]: 8.62 | pEC50 [5]: 9.15 | pKi [2]: 7.33 | pIC50 [6]: 6.14 | pKi [3]: 9.30 | pIC50 [7]: 7.14 | ED50 [8]: 0.32 mg/kg | Emax [9]: 122%
